In patent US8927717B1, “Thiochromeno[2,3-c]quinolin-12-one derivatives, preparation method and application thereof” (National Defense Medical Center, priority 2014, dated 2015):

Experiments:
Assay type in all cases: cell-based
K-562 = test system: K-562
MOLT-4 = test system: MOLT-4
SR = test system: SR
A549/ATCC = test system: A549/ATCC
HOP-62 = test system: HOP-62
NCI-H226 = test system: NCI-H226
NCI-H23 = conditions: Non-small cell lung cancer; 10^−5 molar; 48 hours; SRB
NCI-H522 = test system: NCI-H522
HCT-15 = test system: HCT-15
HT29 = test system: HT29
KM12 = assay: cells
SW-620 = test system: SW-620
SF-268 = test system: SF-268
SF-295 = test system: SF-295
SNB-19 = test system: SNB-19
SNB-75 = test system: SNB-75
U251 = test system: U251
LOX IMVI = test system: LOX IMVI
MALME-3M = conditions: Melanoma; 10^−5 molar; 48 hours; SRB
MDA-MB-435 = conditions: MDA-MB-435, five dose
[1] = Leukemia, 10^−5 molar, 48 hours, SRB
[2] = Homo sapiens, A549/ATCC, five dose
[3] = Non-small cell lung cancer, 10^−5 molar, 48 hours, SRB
[4] = Homo sapiens, HOP-62, five dose
[5] = Homo sapiens, NCI-H226, five dose
[6] = Homo sapiens, NCI-H522, five dose
[7] = Colon cancer, 10^−5 molar, 48 hours, SRB
[8] = Homo sapiens, HCT-15, five dose
[9] = Homo sapiens, HT-29, HT29, five dose
[10] = Homo sapiens, SW-620, five dose
[11] = CNS cancer, 10^−5 molar, 48 hours, SRB
[12] = Homo sapiens, SF-295, five dose
[13] = Homo sapiens, SNB-19, five dose
[14] = Homo sapiens, SNB-75, five dose
[15] = Homo sapiens, U-251, U251, five dose
[16] = Homo sapiens, LOX IMVI, five dose

CCNc1nc2ccccc2c2c(=O)c3cc(Cl)ccc3sc12 [Compound N2, 10-Chloro-6-ethylamino-12H-thiochromeno[2,3-c]quinolin-12-one]
GI50 (K-562; Homo sapiens, K562, K-562, five dose): > 100 µM
CC50 (K-562; Homo sapiens, K562, K-562, five dose, read-out: LC50 (the source's name)): > 100 µM
TGI (K-562; K-562, five dose): >100 µM
Growth percent K-562 (K-562; [1]): 77.52%
GI50 (MOLT-4; Homo sapiens, MOLT-4, five dose): > 100 µM
CC50 (MOLT-4; Homo sapiens, MOLT-4, five dose, read-out: LC50 (the source's name)): > 100 µM
Growth percent MOLT-4 (MOLT-4; [1]): 92.27%
TGI (MOLT-4; MOLT-4, five dose): >100 µM
GI50 (SR; Homo sapiens, SR, five dose): > 100 µM
LC50 (50% lethal concentration) (SR; Homo sapiens, SR, five dose): > 100 µM
Growth percent SR (SR; [1]): 84.32%
TGI (SR; SR, five dose): >100 µM
TGI (A549/ATCC; A549/ATCC, five dose): >100 µM
GI50 (A549/ATCC; [2]): 48.1 µM
LC50 (A549/ATCC; [2]): > 100 µM
Growth percent A549/ATCC (A549/ATCC; [3]): 61.84%
TGI (HOP-62; HOP-62, five dose): 35.20 µM
GI50 (HOP-62; [4]): 13.3 µM
LC50 (lethal concentration 50) (HOP-62; [4]): 93.1 µM
Growth percent HOP-62 (HOP-62; [3]): 57.49%
GI50 (NCI-H226; [5]): 33.2 µM
LC50 (concentration giving 50% net cell kill) (NCI-H226; [5]): > 100 µM
TGI (NCI-H226; NCI-H226, five dose): >100 µM
Growth percent NCI-H226 (NCI-H226; [3]): 41.31%
Growth percent NCI-H23 (NCI-H23): 86.29%
GI50 (NCI-H522; [6]): 24.8 µM
LC50 (concentration causing 50% net cell kill) (NCI-H522; [6]): > 100 µM
TGI (NCI-H522; NCI-H522, five dose): >100 µM
Growth percent NCI-H522 (NCI-H522; [3]): 80.75%
Growth percent HCT-15 (HCT-15; [7]): 79.72%
TGI (HCT-15; HCT-15, five dose): >100 µM
GI50 (HCT-15; [8]): > 100 µM
LC50 (HCT-15; [8]): > 100 µM
Growth percent HT29 (HT29; [7]): 68.21%
TGI (HT29; HT29, five dose): >100 µM
GI50 (HT29; [9]): > 100 µM
LC50 (concentration killing 50% of cells) (HT29; [9]): > 100 µM
Growth percent KM12 (KM12; [7]): 85.79%
GI50 (KM12; Homo sapiens, KM12, five dose): > 100 µM
LC50 (KM12; Homo sapiens, KM12, five dose): > 100 µM
TGI (KM12; KM12, five dose): >100 µM
Growth percent SW-620 (SW-620; [7]): 84.65%
GI50 (SW-620; [10]): > 100 µM
LC50 (SW-620; [10]): > 100 µM
TGI (SW-620; SW-620, five dose): >100 µM
Growth percent SF-268 (SF-268; [11]): 78.23%
GI50 (SF-268; Homo sapiens, SF-268, five dose): 22.1 µM
CC50 (SF-268; Homo sapiens, SF-268, five dose, read-out: LC50 (the source's name)): > 100 µM
TGI (SF-268; SF-268, five dose): >100 µM
Growth percent SF-295 (SF-295; [11]): 69.49%
GI50 (SF-295; [12]): 12.2 µM
LC50 (SF-295; [12]): > 100 µM
TGI (SF-295; SF-295, five dose): 35.20 µM
Growth percent SNB-19 (SNB-19; [11]): 84.19%
GI50 (SNB-19; [13]): 26.6 µM
LC50 (concentration killing 50% of cells) (SNB-19; [13]): > 100 µM
TGI (SNB-19; SNB-19, five dose): 81.10 µM
Growth percent SNB-75 (SNB-75; [11]): 12.12%
GI50 (SNB-75; [14]): 4.96 µM
LC50 (SNB-75; [14]): 60.2 µM
TGI (SNB-75; SNB-75, five dose): 22.00 µM
Growth percent U251 (U251; [11]): 76.58%
GI50 (U251; [15]): 16.9 µM
LC50 (U251; [15]): > 100 µM
TGI (U251; U251, five dose): 67.90 µM
GI50 (LOX IMVI; [16]): > 100 µM
LC50 (LOX IMVI; [16]): > 100 µM
TGI (LOX IMVI; LOX IMVI, five dose): >100 µM
Growth percent LOX IMVI (LOX IMVI; Melanoma, 10^−5 molar, 48 hours, SRB): 80.61%
Growth percent MALME-3M (MALME-3M): 77.31%
GI50 (MDA-MB-435; Homo sapiens): > 100 µM
CC50 (MDA-MB-435; Homo sapiens, read-out: LC50 (the source's name)): > 100 µM
TGI (MDA-MB-435): >100 µM
